Consider 1 compound from ChEMBL document CHEMBL5113518, “Discovery of a Novel G-Quadruplex and Histone Deacetylase (HDAC) Dual-Targeting Agent for the Treatment of Triple-Negative Breast Cancer” (J Med Chem, 2022).

The source made the active and inactive calls. The rule behind the calls is not given here.

The subject of data set [1] is MDA-MB-231. Nature of the data set: Induction of DNA damage in human MDA-MB-231 cells at 1.25 to 5 uM assessed as increase in gamma-H2AX level and measured for 48 hrs by DAPI staining method. The class given is functional, cell-based. As to conditions: dose 1.25-5 µM.
Data set [2] deals with Quadruplex DNA. Nature of the data set: Binding affinity to 5' FAM and 3' TAMRA-labeled c-myc G4-quadruplex DNA HTG21 (unknown origin) assessed as change in melting temperature by fluorescence resonance energy transfer assay. The class given is nucleic-acid assay.
The test system of data set [3] is MDA-MB-231. Nature of the data set: Stabilization of DNA Pu22 (unknown origin ) in human MDA-MB-231 cells assessed as G4-quadruplex formation by measuring fold change at 1.25 to 5 uM incubated for 48 hrs by immunofluorescence based confocal laser scanning microscopic analysis. The class given is cell-based. As to conditions: dose 1.25-5 µM.
Data set [4] has as its system BT-549. In words: Cytotoxicity against human BT-549 cells harboring wild type BRCA1 and wild type BRCA2 assessed as reduction in cell viability. It is filed as functional, cell-based.
Data set [5] deals with HeLa. In words: Potency index, ratio of SAHA IC50 to test compound IC50 for inhibition of HDAC in human HeLa nuclear extract.
The target of data set [6] is Quadruplex DNA. Nature of the data set: Binding affinity to 5' FAM-labeled c-myc G4-quadruplex DNA Pu22 (unknown origin) by fluorescence quench assay. The class given is nucleic-acid assay.
In data set [7] the test system is Quadruplex DNA. In words: Binding affinity to 5' FAM and 3' TAMRA-labeled […] (unknown origin) assessed as change in melting temperature by fluorescence resonance energy transfer assay. It is filed as nucleic-acid assay.
Data set [8] can be described thus: Stabilization of DNA Pu22 (unknown origin ) single strand assessed as G4-quadruplex formation up to 30 uM in presence of potassium ions by spectrum based circular dichroism analysis. In general terms: Circular dichroism is the unequal absorption of left and right circularly polarised light.
Data set [9] has as its system MDA-MB-231. Nature of the data set: Effect on metabolism in human MDA-MB-231 cells assessed as reduction in glycolysis at 2.5 uM measured after 48 hrs by seahorse XF24 analysis. The class given is functional, cell-based.
Data set [10] has as its system MDA-MB-468. In words: Cytotoxicity against human MDA-MB-468 cells harboring wild type BRCA1 and BRCA2 mutant reduction in assessed as cell viability. It is filed as functional, cell-based.
Data set [11] deals with MDA-MB-231. Nature of the data set: Antitumor activity against human MDA-MB-231 cells xenografted in BALB/c-nu/nu mouse assessed as increment ratio at 2.5 mg/kg, ip measured for 31 days. The class given is functional. As to conditions: time 31 day. (In general: A xenograft is tissue or cells of one species grown in another, often human tumour cells in immunodeficient mice.)

The subject of data set [12] is MDA-MB-231. In words: Stabilization of DNA Pu22 (unknown origin ) in human MDA-MB-231 cells assessed as G4-quadruplex formation by measuring fold change at 2.5 uM incubated for 6 hrs by immunofluorescence based confocal laser scanning microscopic analysis. The class given is cell-based.
A short description of data set [13]: Elimination half life in Sprague-Dawley rat at 2 mg/kg, iv measured up to 24 hrs by LC-MS/MS analysis. The class given is ADME, organism-based. As to conditions: in vivo, read-out: beta t1/2 (converted).
For data set [14], the target named is Histone deacetylase. In words: Inhibition of HDAC in human HeLa nuclear extract incubated for 30 mins by fluorescence-based Glo-luminescence assay. The class given is cell-based.
Data set [15] concerns the target T1, Protein deacetylase HDAC6 (Homo sapiens, UniProt Q9UBN7).
T1 sequence (Q9UBN7 whole entry): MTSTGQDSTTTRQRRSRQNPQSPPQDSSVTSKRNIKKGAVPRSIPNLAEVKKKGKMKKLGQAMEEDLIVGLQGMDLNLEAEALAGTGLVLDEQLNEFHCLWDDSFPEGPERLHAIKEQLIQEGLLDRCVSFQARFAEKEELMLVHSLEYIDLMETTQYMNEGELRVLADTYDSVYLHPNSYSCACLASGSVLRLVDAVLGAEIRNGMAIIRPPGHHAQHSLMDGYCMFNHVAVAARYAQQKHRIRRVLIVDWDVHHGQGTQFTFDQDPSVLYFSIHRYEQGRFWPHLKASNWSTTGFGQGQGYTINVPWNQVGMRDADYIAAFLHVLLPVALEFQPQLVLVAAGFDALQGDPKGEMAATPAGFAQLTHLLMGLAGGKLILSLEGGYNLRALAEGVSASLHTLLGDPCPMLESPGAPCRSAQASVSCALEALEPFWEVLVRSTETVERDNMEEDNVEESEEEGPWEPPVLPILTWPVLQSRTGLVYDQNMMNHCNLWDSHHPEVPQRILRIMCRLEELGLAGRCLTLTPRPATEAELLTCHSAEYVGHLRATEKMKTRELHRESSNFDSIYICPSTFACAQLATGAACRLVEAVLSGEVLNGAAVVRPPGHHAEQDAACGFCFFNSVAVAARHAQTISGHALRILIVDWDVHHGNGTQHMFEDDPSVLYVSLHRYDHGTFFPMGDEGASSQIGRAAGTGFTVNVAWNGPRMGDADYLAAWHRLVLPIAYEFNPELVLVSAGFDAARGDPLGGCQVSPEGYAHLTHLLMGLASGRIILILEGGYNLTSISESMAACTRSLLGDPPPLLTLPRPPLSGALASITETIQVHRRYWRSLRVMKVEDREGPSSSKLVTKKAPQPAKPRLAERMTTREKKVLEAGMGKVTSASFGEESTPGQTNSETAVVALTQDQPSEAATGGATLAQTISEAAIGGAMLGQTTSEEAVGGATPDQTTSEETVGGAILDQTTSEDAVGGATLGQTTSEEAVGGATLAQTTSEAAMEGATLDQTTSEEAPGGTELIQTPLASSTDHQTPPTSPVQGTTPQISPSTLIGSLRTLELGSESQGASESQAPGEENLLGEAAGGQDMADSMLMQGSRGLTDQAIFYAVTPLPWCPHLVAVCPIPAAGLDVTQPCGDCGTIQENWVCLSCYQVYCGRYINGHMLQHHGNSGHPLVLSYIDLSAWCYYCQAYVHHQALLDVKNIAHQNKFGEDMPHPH
Nature of the data set: Inhibition of full length recombinant N-terminal GST-tagged human HDAC6 expressed in baculovirus infected Sf9 insect cells incubated for 50 mins by Glo- luminescence assay.

Data set [16] addresses Histone deacetylase 1 (Homo sapiens, UniProt Q13547). Nature of the data set: Inhibition of full length recombinant C-terminal GST-tagged human HDAC1 expressed in baculovirus infected Sf9 insect cells incubated for 50 mins by Glo- luminescence assay.
In data set [17] the target is Histone deacetylase 4 (Homo sapiens, UniProt P56524). Nature of the data set: Inhibition of full length recombinant N-terminal GST-tagged human HDAC4 (612 to end residues)expressed in baculovirus infected Sf9 insect cells incubated for 50 mins by Glo- luminescence assay.
For data set [18], the target named is Quadruplex DNA. Nature of the data set: Binding affinity to […]' FAM-labeled c-myc G4-quadruplex DNA Pu22 (unknown origin) by fluorescence quench assay. The class given is nucleic-acid assay.
Data set [19] deals with BT-549. In words: Induction of DNA damage in human BT-549 at 1.25 to 5 uM assessed as increase in gamma-H2AX level and measured for 48 hrs by DAPI staining method. It is filed as functional, cell-based. The following applies: dose 1.25-5 µM.
The target of data set [20] is Quadruplex DNA. Nature of the data set: Binding affinity to 5' FAM-labeled […] (unknown origin) assessed as dissociation constant by surface plasmon resonance assay. The class given is nucleic-acid assay. On the technique in general: Surface plasmon resonance follows binding to a sensor surface in real time, without labels.
In data set [21] the test system is MDA-MB-231. In words: Inhibition of cell invasion in human MDA-MB-231 cells at 2.5 uM incubated for 48 hrs by crystal violet staining based transwell assay. It is filed as functional.
For data set [22], the system named is MDA-MB-231. Nature of the data set: Antitumor activity against human MDA-MB-231 cells xenografted in BALB/c-nu/nu mouse assessed as reduction in tumor volume at 2.5 mg/kg, ip measured for 31 days. The class given is functional, organism-based. As to conditions: time 31.0 day.
Data set [23] relates to MDA-MB-231. Nature of the data set: Induction of cell cycle arrest in human MDA-MB-231 cells assessed as accumulation at G2/M phase at 2.5 uM measured for 6 to 48 hrs. It is filed as functional, cell-based. The following applies: time 6-48 hrs.

Sequence of Histone deacetylase 1 (Q13547 whole entry): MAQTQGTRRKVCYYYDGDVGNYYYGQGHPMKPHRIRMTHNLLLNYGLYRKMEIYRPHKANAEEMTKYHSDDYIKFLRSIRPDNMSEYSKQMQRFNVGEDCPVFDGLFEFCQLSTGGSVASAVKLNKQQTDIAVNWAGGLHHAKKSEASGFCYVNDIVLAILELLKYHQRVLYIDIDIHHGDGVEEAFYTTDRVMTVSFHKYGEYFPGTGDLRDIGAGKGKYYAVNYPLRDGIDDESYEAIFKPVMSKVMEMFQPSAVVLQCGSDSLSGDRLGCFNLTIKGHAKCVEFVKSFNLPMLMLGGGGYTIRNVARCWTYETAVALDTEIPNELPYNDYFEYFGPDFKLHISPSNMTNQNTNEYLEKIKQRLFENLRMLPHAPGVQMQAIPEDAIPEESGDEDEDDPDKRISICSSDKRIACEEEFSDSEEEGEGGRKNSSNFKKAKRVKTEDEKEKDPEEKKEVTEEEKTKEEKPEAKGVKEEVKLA
Sequence of Histone deacetylase 4 (P56524 whole entry): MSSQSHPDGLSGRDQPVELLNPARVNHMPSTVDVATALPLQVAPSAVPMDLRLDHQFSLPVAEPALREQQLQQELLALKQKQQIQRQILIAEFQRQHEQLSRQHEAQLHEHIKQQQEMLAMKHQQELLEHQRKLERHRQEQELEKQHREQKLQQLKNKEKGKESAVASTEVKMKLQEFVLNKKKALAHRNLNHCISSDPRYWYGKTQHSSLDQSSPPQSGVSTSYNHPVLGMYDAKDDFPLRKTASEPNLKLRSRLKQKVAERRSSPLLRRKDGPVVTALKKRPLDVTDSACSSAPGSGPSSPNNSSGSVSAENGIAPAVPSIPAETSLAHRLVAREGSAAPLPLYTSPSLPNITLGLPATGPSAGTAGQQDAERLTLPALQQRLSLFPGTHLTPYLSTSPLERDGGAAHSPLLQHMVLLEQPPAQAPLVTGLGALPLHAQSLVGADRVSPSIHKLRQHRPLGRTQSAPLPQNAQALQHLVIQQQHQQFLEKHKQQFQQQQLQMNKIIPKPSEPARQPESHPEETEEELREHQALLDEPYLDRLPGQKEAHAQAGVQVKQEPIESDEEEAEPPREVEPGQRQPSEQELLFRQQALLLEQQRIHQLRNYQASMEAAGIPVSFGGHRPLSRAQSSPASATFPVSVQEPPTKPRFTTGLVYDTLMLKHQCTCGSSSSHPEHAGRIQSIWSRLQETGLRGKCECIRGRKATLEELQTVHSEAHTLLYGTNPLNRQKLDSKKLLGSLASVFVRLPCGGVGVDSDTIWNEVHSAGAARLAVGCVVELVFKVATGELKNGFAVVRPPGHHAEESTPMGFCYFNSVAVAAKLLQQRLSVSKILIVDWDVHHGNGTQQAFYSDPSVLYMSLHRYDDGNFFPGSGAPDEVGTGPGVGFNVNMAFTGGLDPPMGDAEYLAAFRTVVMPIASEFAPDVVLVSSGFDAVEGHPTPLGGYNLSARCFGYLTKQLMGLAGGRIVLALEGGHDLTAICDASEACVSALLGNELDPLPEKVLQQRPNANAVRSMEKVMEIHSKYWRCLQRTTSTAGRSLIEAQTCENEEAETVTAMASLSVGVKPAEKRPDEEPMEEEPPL

Broadly, the ΔTm is the change in melting temperature against a reference sample. The IC50 is the concentration that inhibits the measured activity by half. As usually defined, the T/C is the ratio of treated to control. The term Kd denotes the free concentration of one partner at which half of the binding sites on the other are occupied at equilibrium, for simple one-to-one binding. In the case of `CN(C)CCCNC(=O)c1ccc(/C=C2\CCn3c2nc2cc(N4CCN(CCCCCCCC(=O)NO)CC4)c(F)cc2c3=O)cc1.Cl`, the outcome in [1], in [8], in data set [9], in data set [12], in data set [19] and in data set [22] was Active. Besides, in data set [23], the outcome was Active. The results for the ΔTm in data set [2] and in [7] were 2 °C and 1.2 °C, respectively. The fold change (FC) in data set [3] stood at 8. Further, the IC50 came to 6.5 µM in [4]; 3.3 µM in [10]; 1.9 µM in data set [14]; 0.65 µM in data set [15]; 1.26 µM in data set [16]; 2.64 µM in [17]. The Ratio IC50 in data set [5] turned out to be 20. In addition, the values for the DC50 in data set [6] and in data set [18] were 0.4 µM and 0.1 µM, respectively. Besides, the T/C in data set [11] is recorded as 36.2%. For the same compound, the half-life in data set [13] is 7.4 h. Moreover, the Kd in data set [20] worked out at 4.5 µM. For the same compound, the inhibition entry in [21] was “Active”.
